Data: PubChem BioAssay AID296 (DTP/NCI, 2004)
Where “and” joins values, the source holds several entries; their conditions need not be identical. Identical values can stand only once. Inconclusive results are not listed.

Tested on: MX-1 breast xenograft, nude mice, tumor weight T/C
Experiment: NCI In Vivo Anticancer Drug Screen. Data for tumor model Human Mammary Carcinoma MX-1 Xenograft (intrarenal inoculation) in NU/NU Swiss (nude) mice
Settings: endpoint: mean tumor weight change, higher = larger tumour
Method in brief: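 Tumor-bearing mice were treated with test compound alongside a vehicle-treated control group. Survival or tumor size was measured, and activity is expressed as the treated-group value divided by the control-group value.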

[1] = dose: 0.75 mg/kg/injection, schedule: Q04DX003 (sc), vehicle: saline
[2] = dose: 3.0 mg/kg/injection, schedule: Q04DX003 (sc), vehicle: saline
[3] = dose: 8.0 mg/kg/injection, schedule: Q04DX003 (sc), vehicle: saline
[4] = dose: 150.0 mg/kg/injection, schedule: Q04DX003 (sc), vehicle: saline

With `Nc1cc2[nH]cnc2c(=O)[nH]1` the T/C (dose: 25.0 mg/kg/injection, schedule: Q01DX010 (sc), vehicle: saline) was 46 % of control, the T/C (dose: 50.0 mg/kg/injection, schedule: Q01DX010 (sc), vehicle: saline) was -36 % of control and the T/C (dose: 50.0 mg/kg/injection, schedule: Q01DX010 (sc), vehicle: suspension in saline) was 9 % of control. For the same compound, the T/C (dose: 50.0 mg/kg/injection, schedule: Q04DX003 (sc), vehicle: suspension in saline) was 95 % of control, the T/C (dose: 100.0 mg/kg/injection, schedule: Q01DX010 (sc), vehicle: saline) was -25 % of control and -11 % of control and the T/C (dose: 100.0 mg/kg/injection, schedule: Q01DX010 (sc), vehicle: suspension in saline) was -28 % of control. For the same compound, the T/C (dose: 100.0 mg/kg/injection, schedule: Q04DX003 (sc), vehicle: suspension in saline) was 83 % of control and 100 % of control, the T/C (dose: 200.0 mg/kg/injection, schedule: Q01DX010 (sc), vehicle: saline) was -31 % of control and the T/C (dose: 200.0 mg/kg/injection, schedule: Q01DX010 (sc), vehicle: suspension in saline) was -89 % of control. For the same compound, the T/C (dose: 200.0 mg/kg/injection, schedule: Q04DX003 (sc), vehicle: suspension in saline) was 8 % of control and 31 % of control, the T/C (dose: 400.0 mg/kg/injection, schedule: Q04DX003 (sc), vehicle: suspension in saline) was 12 % of control and 18 % of control and the T/C (dose: 800.0 mg/kg/injection, schedule: Q04DX003 (sc), vehicle: suspension in saline) was 8 % of control.
`O=C1C(NCCO)=C(N2CC2)C(=O)C(NCCO)=C1N1CC1` was tested, and the T/C (dose: 0.5 mg/kg/injection, schedule: Q04DX003 (ip), vehicle: saline) was 69 % of control, the T/C [1] was 64 % of control and the T/C (dose: 1.0 mg/kg/injection, schedule: Q04DX003 (ip), vehicle: saline) was 50 % of control. The T/C (dose: 1.5 mg/kg/injection, schedule: Q04DX003 (sc), vehicle: saline) was 37 % of control, the T/C (dose: 2.0 mg/kg/injection, schedule: Q04DX003 (ip), vehicle: saline) was 29 % of control and the T/C (dose: 2.0 mg/kg/injection, schedule: Q04DX003 (sc), vehicle: saline) was 66 % of control. For the same compound, the T/C [2] was 9 % of control, the T/C (dose: 4.0 mg/kg/injection, schedule: Q04DX003 (ip), vehicle: saline) was 8 % of control and the T/C [3] was -90 % of control.
With `C=C(C)[C@@H]1CCc2c(O)c(O)c(=O)cc(C)c2C1` the T/C [4] was 91 % of control, the T/C (dose: 300.0 mg/kg/injection, schedule: Q04DX003 (sc), vehicle: saline) was 107 % of control and the T/C (dose: 600.0 mg/kg/injection, schedule: Q04DX003 (sc), vehicle: saline) was 89 % of control. For the same compound, the T/C (dose: 1200.0 mg/kg/injection, schedule: Q04DX003 (sc), vehicle: saline) was 98 % of control.
`CC1(C)OC2C(COC(=O)c3ccc([N+](=O)[O-])cc3)OC(NC(=O)N(CCCl)N=O)C2O1` (centres undefined) was tested, and the T/C (dose: 150.0 mg/kg/injection, schedule: Q04DX003 (sc), vehicle: saline with Tween-80) was 69 % of control and the T/C (dose: 1200.0 mg/kg/injection, schedule: Q04DX003 (sc), vehicle: saline with Tween-80) was 9 % of control.
For `N[C@H](C(=O)O)[C@@H]1CC(Cl)=NO1`, the T/C (dose: 4.0 mg/kg/injection, schedule: Q01DX010 (sc), vehicle: suspension in saline) was -87 % of control, the T/C (dose: 4.0 mg/kg/injection, schedule: Q02DX005 (sc), vehicle: saline) was -33 % of control and the T/C (dose: 4.0 mg/kg/injection, schedule: Q04DX003 (sc), vehicle: saline) was 52 % of control. The T/C (dose: 8.0 mg/kg/injection, schedule: Q01DX010 (sc), vehicle: saline) was -100 % of control and -89 % of control and -76 % of control, the T/C (dose: 8.0 mg/kg/injection, schedule: Q01DX010 (sc), vehicle: suspension in saline) was -86 % of control and the T/C (dose: 8.0 mg/kg/injection, schedule: Q02DX005 (sc), vehicle: saline) was -59 % of control. For the same compound, the T/C [3] was 25 % of control, the T/C (dose: 16.0 mg/kg/injection, schedule: Q01DX010 (sc), vehicle: suspension in saline) was -82 % of control and the T/C (dose: 16.0 mg/kg/injection, schedule: Q02DX005 (sc), vehicle: saline) was -31 % of control. The T/C (dose: 16.0 mg/kg/injection, schedule: Q04DX003 (sc), vehicle: saline) was 7 % of control, the T/C (dose: 32.0 mg/kg/injection, schedule: Q01DX010 (sc), vehicle: suspension in saline) was -90 % of control and the T/C (dose: 32.0 mg/kg/injection, schedule: Q04DX003 (sc), vehicle: saline) was 5 % of control.
In the case of `CO[C@@]12[C@H](COC(N)=O)C3=C(C(=O)C(C)=C(N)C3=O)N1C[C@@H]1N[C@@H]12`, the T/C [2] is reported as -100 % of control and the T/C (dose: 6.0 mg/kg/injection, schedule: Q04DX003 (sc), vehicle: saline) is reported as -88 % of control and -100 % of control (2×).
With `CSCS(=O)C[C@H](CO)NC(=O)/C=C/c1c(C)[nH]c(=O)[nH]c1=O` (some centres undefined) the T/C (dose: 0.38 mg/kg/injection, schedule: Q04DX003 (sc), vehicle: saline) was 106 % of control and the T/C [1] was 97 % of control.
In the case of `CCCCCCCCCCCCCCCCCCOCC(COP(=O)([O-])OCC[N+](C)(C)C)OC` (centres undefined), the T/C [4] is reported as 120 % of control.
